Test results as given in PMC12122562, “Phase 1 studies of the indenoisoquinolines LMP776 and LMP744 in patients with solid tumors and lymphomas” (Cancer Chemotherapy and Pharmacology, 2025).

Biological target: T1, TOP1 (Homo sapiens, UniProt P11387)
T1 construct: paired pre-treatment and on-treatment tumor biopsies (C1D2, 2–4 h after dosing) from 6 patients receiving LMP744 at the MTD; from tissue; host or cells: core needle tumor biopsies from patients (LMP744 expansion cohort)
T1 sequence (P11387 1-765): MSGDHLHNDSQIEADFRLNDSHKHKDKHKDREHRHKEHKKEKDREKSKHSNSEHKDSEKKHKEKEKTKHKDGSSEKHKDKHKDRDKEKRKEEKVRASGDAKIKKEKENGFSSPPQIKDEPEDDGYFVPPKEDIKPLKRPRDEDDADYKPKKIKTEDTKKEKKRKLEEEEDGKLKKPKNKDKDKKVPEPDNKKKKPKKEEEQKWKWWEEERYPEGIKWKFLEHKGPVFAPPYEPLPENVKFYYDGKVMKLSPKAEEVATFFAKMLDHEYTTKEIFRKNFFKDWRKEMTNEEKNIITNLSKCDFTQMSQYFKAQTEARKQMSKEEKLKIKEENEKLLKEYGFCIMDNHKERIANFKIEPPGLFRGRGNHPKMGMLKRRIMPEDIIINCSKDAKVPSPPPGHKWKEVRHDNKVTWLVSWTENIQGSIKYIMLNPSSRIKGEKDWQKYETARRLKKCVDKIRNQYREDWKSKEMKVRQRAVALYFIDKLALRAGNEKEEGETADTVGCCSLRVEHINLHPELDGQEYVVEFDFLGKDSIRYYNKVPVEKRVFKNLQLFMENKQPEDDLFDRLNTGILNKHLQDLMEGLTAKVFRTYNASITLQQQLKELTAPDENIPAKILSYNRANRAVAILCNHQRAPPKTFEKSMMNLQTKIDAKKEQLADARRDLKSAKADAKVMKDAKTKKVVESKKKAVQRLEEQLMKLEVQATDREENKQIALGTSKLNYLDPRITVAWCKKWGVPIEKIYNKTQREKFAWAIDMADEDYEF
Assay: qIF of paired tumor biopsies: nuclear TOP1
Type: in vivo
Source text: The LMP744 protocol collected pre-treatment (baseline) and on-treatment paired biopsies from patients in the expansion cohort. Core needle tumor biopsies (18-gauge) were collected and flash-frozen at point of collection per NCI SOPs (https://dctd.cancer.gov/ResearchResources/biomarkers/docs/par/SOP340507_Biopsy_Frozen.pdf) as described to preserve labile post-translational modifications such as phosphorylation. Biopsy pairs were thawed in formalin, fixed in paraffin embedded together with control tissues following NCI SOP340550 (https://dctd.cancer.gov/ResearchResources/biomarkers/DDR3/SOP340550_Biopsy_Section_Testis_Jejunum_Controls.pdf). TOP1 and TOP1cc were measured with a cocktail containing custom-conjugated rabbit monoclonal antibody anti-TOP1-DIG (Abcam, EPR5376 (2)) and mouse monoclonal antibody anti-TOP1cc (clone 1.1A [34, 35], EMD Millipore) that were detected with reporter secondary antibodies AlexaFluor-647 IgG fraction monoclonal mouse anti-digoxin (Jackson ImmunoResearch) and goat/anti-mouse AlexaFluor-488, respectively. Phosphorylated KAP1 (pKAP1, phosphorylated at S824) was measured using custom-conjugated pKAP1-pS824-DNP (Abcam, EPR5248) and detected with AlexaFluor-488 conjugated with anti-dinitrophenyl-KLH rabbit IgG Antibody Fraction (DNP-488, ThermoFisher). Validated immunofluorescence assays (IFAs) were used to measure levels of γH2AX, phosphorylated NBS1 (pNBS1, phosphorylated at Ser343), and RAD51 [15, 17, 19, 29]. Antibodies in all clinical immunofluorescence staining protocols were used as a cocktail with β-catenin as a tumor marker as previously described. After staining with primary antibodies, washing, and staining with secondary antibodies, slides were rinsed in 1X PBS and blotted to remove excess liquid. Slides were cured overnight with Prolong Gold Antifade Reagent (Invitrogen) in the dark and imaged the following day. Confocal images (12-bit) were acquired at 20X using a Nikon A1 scan head on a Nikon 90i microscope at 0.24 µm/pixel to measure nuclear TOP1 and nuclear foci of TOP1cc and RAD51. […] TOP1, γH2AX, pNBS1, and pKAP1 were measured as the percentage of DAPI-stained tumor cell nuclear area that was positive for the biomarker (% NAP); RAD51 [19] and TOP1cc was measured as a function of the percentage of nuclei with ≥ 5 foci (RAD51) or ≥ 19 foci (TOP1cc). Apoptosis was measured using a validated IFA of tumor cells positive for both cCasp3 blebbing in the cytoplasm and γH2AX in the nucleus. Anti-SLFN11 rabbit monoclonal antibody (Cell Signaling Technology, clone D8W1B) was detected by immunohistochemistry (IHC) using Bond Polymer Detection kit (Leica) and scanned in 20X widefield Aperio (Leica), and the distribution of staining intensity of tumor cell nuclei graded as 0, 1 + , 2 + or 3 + was converted into an H-score. […]

Structure (SMILES): COc1cc2c3c(n(CCCNCCO)c(=O)c2cc1OC)-c1cc2c(cc1C3=O)OCO2 [LMP744]
- Nuclear TOP1, change in the biopsy cohort (6 patients at MTD, P = 0.1448): no significant changes
- Nuclear TOP1 (patient 29, MTD, C1D2): neither biomarker changed with treatment
- Nuclear TOP1 (patient 31, MTD, C1D2): decreased nearly to background levels
- Decrease of nuclear TOP1 (patient 33, MTD, C1D2): 57%
